Assays:
[1] = target: T1, NMDA receptor glycine B site (Rattus norvegicus, UniProt P35439); assay: Whole cell patch-clamp recordings, rat hippocampal neurons (NMDA/D-Serine currents); type: cell-based; conditions: NMDA 200 μM + D-Serine 1 μM, -70 mV, read-out: NMDA-PC-r-HIC-NAM - IC50
Method: Antagonistic potencies of the test compounds are functionally evaluated using electrophysiological whole cell patch-clamp recordings and/or fluorometric intracellular Ca^2+-imaging (FLIPR) screens.
Cell preparation is performed as described by Parsons, et al. (Neuropharmacology, 1998, 37(6), 719-727). The female Sprague-Dawley rat is anaesthetised by placing in a saturated CO2-euthanasia chamber under further quiet CO2-influx. Under these conditions the rat loses consciousness after a few seconds and is then sacrificed by cervical dislocation. After opening the abdominal cavity, embryos (E20) are removed and stored in ice cold Ca^2+- and Mg^2+-free Hank's Buffered Salt Solution (pH 7.3), containing 4 g/l glucose (HBSS-CMF). Hippocampi are then isolated from the brains of at least 8 embryos after decapitation, transferred into ice cold HBSS-CMF and washed 3 to 4 times.
Hippocampi are pre-incubated for 8 min with a 0.66% trypsin (Sigma-Aldrich) and 0.1% (20 U/ml) DNAase solution (Sigma-Aldrich) in Ca^2+-free Phosphate Buffered Saline (PBS-CF) and washed 3 times with HBSS-CMF. Cells are then mechanically dissociated by trituration in a PBS-CF solution containing 0.05% (10 U/ml) DNAase and 0.3% of the trypsin inhibitor ovomucoid (all from Sigma-Aldrich). The cells are then centrifuged at 180×g for 10 minutes, and the cell pellet re-suspended in basal Minimum essential medium (MEM, Invitrogen, Karlsruhe, Germany), again carefully triturated to ensure maximal dissociation and finally plated in the flexiPERM inserts (Thermo Fisher Scientific, Langenselbold, Germany) at a density of 15×10^3 cells/cm^2 (0.5 ml/insert) onto poly-DL-ornithine (Sigma) and mouse laminin (Invitrogen) pre-coated plastic petri dishes. After 1 hour the cells become attached to the bottom of the dish and the inserts may be removed. The cells are then nourished with 2 ml MEM supplemented with 5% foetal calf serum (FCS) and 5% horse serum and incubated at 37° C. with 95% air and 5% CO2 at 95% humidity. After 4 days in vitro (DIV) further glial mitosis is inhibited by adding 10 μl of AraC (5 μM endconcentration). The medium is completely exchanged after an additional 2 DIV and again, but only partly (50%), after 8 DIV. The cells are used for electrophysiological recordings after 11-15 DIV.
Cells are visualised using an inverted microscope and selected for patching based upon their position and morphology. Voltage clamp recordings are made in the whole cell configuration of the patch clamp technique at a holding potential of −70 mV with the aid of an EPC-10 amplifier in combination with pipette manipulator. Patch clamp pipettes are pulled from borosilicate glass using a horizontal puller (P-97 Puller, Sutter Instruments, USA) and, when filled with intracellular solution, have resistances of 1-4 MΩ.
Solutions are delivered via a home-made gravity driven very fast perfusion system (<10 ms) including valves to switch flow on and off in combination with a stepper motor-driven double-barrelled theta glass application pipette in order to expose cells to either agonist-free or agonist-containing solutions in presence or absence of antagonist.
The intracellular solution used consists of: 120 mM CsCl, 10 mM EGTA, 1 mM MgCl2, 200 μM CaCl2, 10 mM glucose and 22 mM tetraethyl ammonium chloride (TEA-CL). The corresponding extracellular bath solution contains: 140 mM NaCl, 3 mM KCl, 10 mM glucose, 10 mM HEPES, 1.5 mM CaCl2 and 4.5 mM sucrose (all from Sigma-Aldrich) pH 7.3, and is supplemented with 0.3 μM tetrodotoxin (TTX, Tocris, Bristol, U.K.) to block voltage-activated sodium channels and 0.25 μM bicuculline (Sigma-Aldrich) to block GABAA receptors. […]

[2] = target: T1, NMDA receptor glycine B site; assay: Calcium FLIPR studies, rat cortical neurons (NMDA/D-Serine induced intracellular calcium); type: cell-based; set-up: Primary neurons are prepared from cortices of embryonal rats at day 17 of pregnancy; endogenous in cells; host or cells: primary rat cortical neurons (E17, 11-13 DIV); conditions: rat cortical neurons; stimulation with 30 μM NMDA and 1 μM D-Serine; antagonist pre-incubated 10 min; read-out: NMDA-FLIPR-rCTX-NAM - IC50
Procedure, shortened: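 Embryonic (E17) Sprague-Dawley rat cortical neurons, 11-13 days in vitro, loaded with Calcium-4 dye (pH 7.3) and pre-incubated with antagonist (5 concentrations) for 10 min at room temperature, then stimulated with 30 μM NMDA plus 1 μM D-Serine. FLIPR AUC as percent of agonist control; IC50 by four-parameter logistic fit.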

| SMILES | IC50 [1] | IC50 [2] |
| --- | --- | --- |
| O=C(O)COc1cc(C(=O)O)cc2cc(Cl)cc(Cl)c12 [Example 1, 4-Carboxymethoxy-5,7-dichloronaphthalene-2-carboxylic acid] | 850 nM | 6.2 µM |
| CN(C(=O)COc1cc(C(=O)O)cc2cc(Cl)cc(Cl)c12)c1ccc(C(=O)O)cc1 [Example 14, 4-{[(4-Carboxy-phenyl)-methylcarbamoyl]-methoxy}-5,7-dichloronaphthalene-2-carboxylic acid] | 727 nM | 7.33 µM |
| NCc1ccc(NC(=O)COc2cc(C(=O)O)cc3cc(Cl)cc(Cl)c23)c(OCC(=O)O)c1 [Example 34, 4-[(4-Aminomethyl-2-carboxymethoxyphenylcarbamoyl)-methoxy]-5,7-dichloronaphthalene-2-carboxylic acid] | 23 nM | 0.211 µM |
| O=C(O)c1cc(OCC(=O)N2CCCc3ccccc32)c2c(Cl)cc(Cl)cc2c1 [Example 50, 5,7-Dichloro-4-[2-(3,4-dihydro-2H-quinolin-1-yl)-2-oxo-ethoxy]-naphthalene-2-carboxylic acid] | 542 nM | 7.41 µM |
| O=C(COc1cc(C(=O)O)cc2cc(Cl)cc(Cl)c12)Nc1ccccc1OCC(=O)N1CCOCC1 [Example 54, 5,7-Dichloro-4-{[2-(2-morpholin-4-yl-2-oxo-ethoxy)-phenylcarbamoyl]-methoxy}-naphthalene-2-carboxylic acid] | 169 nM | 1.7 µM |
| O=C(COc1cc(C(=O)O)cc2cc(Cl)cc(Cl)c12)Nc1ccccc1OCc1nnn[nH]1 [Example 60, 5,7-Dichloro-4-{[2-(1H-tetrazol-5-ylmethoxy)-phenylcarbamoyl]-methoxy}-naphthalene-2-carboxylic acid] | 65 nM | 1.56 µM |
| COCC(Oc1cc(C(=O)O)cc2cc(Cl)cc(Cl)c12)C(=O)Nc1ccccc1OC (stereo not shown) [Example 74, 5,7-Dichloro-4-[2-methoxy-1-(2-methoxy-phenylcarbamoyl)-ethoxy]-naphthalene-2-carboxylic acid] | 288 nM | 5.46 µM |
| O=C(O)c1cc(OCC(=O)N2CCOc3c(CO)cccc32)c2c(Cl)cc(Cl)cc2c1 [Example 78, 5,7-Dichloro-4-[2-(8-hydroxymethyl-2,3-dihydro-benzo[1,4]oxazin-4-yl)-2-oxo-ethoxy]-naphthalene-2-carboxylic acid] | 253 nM | 4.13 µM |

Now from value to compound:

| IC50 [1] | IC50 [2] | SMILES |
| --- | --- | --- |
| 493 nM | 3.27 µM | O=C(COc1cc(C(=O)O)cc2cc(Cl)cc(Cl)c12)Nc1ccccc1C(=O)O [Example 3, 4-[(2-Carboxy-phenylcarbamoyl)-methoxy]-5,7-dichloro-naphthalene-2-carboxylic acid] |
| 258 nM | 7.08 µM | O=C(COc1cc(C(=O)O)cc2cc(Cl)cc(Cl)c12)Nc1ccccc1CO [Example 5, 5,7-Dichloro-4-[(2-hydroxymethylphenylcarbamoyl)-methoxy]-naphthalene-2-carboxylic acid] |
| 510 nM | 4.01 µM | O=C(O)Cc1ccc(NC(=O)COc2cc(C(=O)O)cc3cc(Cl)cc(Cl)c23)cc1 [Example 7, 4-[(4-Carboxymethylphenylcarbamoyl)-methoxy]-5,7-dichloronaphthalene-2-carboxylic acid] |
| 178 nM | 1.96 µM | O=C(O)Cc1cccc(NC(=O)COc2cc(C(=O)O)cc3cc(Cl)cc(Cl)c23)c1 [Example 13, 4-[(3-Carboxymethylphenylcarbamoyl)-methoxy]-5,7-dichloronaphthalene-2-carboxylic acid] |
| 356 nM | 2.68 µM | O=C(O)Cc1ccccc1NC(=O)COc1cc(C(=O)O)cc2cc(Cl)cc(Cl)c12 [Example 15, 4-[(2-Carboxymethylphenylcarbamoyl)-methoxy]-5,7-dichloronaphthalene-2-carboxylic acid] |
| 465 nM | 9.56 µM | O=C(COc1cc(C(=O)O)cc2cc(Cl)cc(Cl)c12)NCc1ccccc1 [Example 18, 4-(Benzylcarbamoylmethoxy)-5,7-dichloro-naphthalene-2-carboxylic acid] |
| 198 nM | 1.22 µM | CN(C(=O)COc1cc(C(=O)O)cc2cc(Cl)cc(Cl)c12)c1ccccc1C(=O)O [Example 20, 4-{[(2-Carboxyphenyl)-methylcarbamoyl]-methoxy}-5,7-dichloronaphthalene-2-carboxylic acid] |
| 50 nM | 0.105 µM | O=C(O)COc1ccccc1NC(=O)COc1cc(C(=O)O)cc2cc(Cl)cc(Cl)c12 [Example 42, 4-[(2-Carboxymethoxyphenylcarbamoyl)-methoxy]-5,7-dichloronaphthalene-2-carboxylic acid] |
| 59 nM | 0.88 µM | O=C(O)COc1ccccc1CNC(=O)COc1cc(C(=O)O)cc2cc(Cl)cc(Cl)c12 [Example 59, 4-[(2-Carboxymethoxy-benzylcarbamoyl)-methoxy]-5,7-dichloro-naphthalene-2-carboxylic acid] |

— patent US20120220577A1, “GLYCINE B ANTAGONISTS” (Merz Pharma GmbH & Co KgaA, priority 2009, published 2012)
